# What was measured:
# [1] = test system: 5-LOX product formation (FLAP) in human neutrophils; assay: 5-LOX product formation in intact human neutrophils stimulated with Ca2+-ionophore A23187; type: cell-based; settings: 5 h, read-out: IC50, formation of LTB4 and its isomers and of 5-H(p)ETE (5-LOX product formation); intact human neutrophils (PMNL), Ca2+-ionophore A23187, no AA supplementation
# Description: After elution with methanol, samples were analyzed by RP-HPLC using a C-18 Radial-PAK column (Waters, Eschborn, Germany).
# human recombinant 5-LOX = target: T1, human recombinant 5-LOX (Homo sapiens, UniProt P09917); assay: Activity assay of isolated human recombinant 5-LOX (cell-free); type: biochemical; settings: cell-free assays, not further specified
# T1 construct: made in house; host or cells: E. coli BL21
# T1 sequence (P09917 1-674): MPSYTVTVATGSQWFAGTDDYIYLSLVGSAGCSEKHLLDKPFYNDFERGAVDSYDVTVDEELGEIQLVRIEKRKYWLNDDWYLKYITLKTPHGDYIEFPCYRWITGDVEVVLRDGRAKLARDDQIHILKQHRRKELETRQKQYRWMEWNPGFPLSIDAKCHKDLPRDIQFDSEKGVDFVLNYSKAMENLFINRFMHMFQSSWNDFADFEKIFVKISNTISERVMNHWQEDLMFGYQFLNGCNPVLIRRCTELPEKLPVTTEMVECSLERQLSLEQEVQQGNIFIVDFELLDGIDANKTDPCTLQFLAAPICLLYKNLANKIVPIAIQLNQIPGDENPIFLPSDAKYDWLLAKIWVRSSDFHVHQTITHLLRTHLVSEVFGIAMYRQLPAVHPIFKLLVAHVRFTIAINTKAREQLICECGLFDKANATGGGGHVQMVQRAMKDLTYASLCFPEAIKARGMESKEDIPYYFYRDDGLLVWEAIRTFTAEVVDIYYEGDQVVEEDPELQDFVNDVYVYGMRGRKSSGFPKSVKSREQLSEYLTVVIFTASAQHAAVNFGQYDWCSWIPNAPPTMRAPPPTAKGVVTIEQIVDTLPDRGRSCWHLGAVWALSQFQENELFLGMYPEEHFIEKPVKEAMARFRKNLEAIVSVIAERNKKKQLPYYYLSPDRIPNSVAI
# Description: To determine 5-LOX product formation, aliquots (0.5 µg purified 5-LOX in 1 mL PBS plus 1 mM EDTA) were pre-incubated with the test compounds or vehicle (0.1% DMSO) on ice for 15 min and then stimulated with 20 µM AA and CaCl2 (2 mM) for 10 min at 37 °C. The reaction was stopped with one volume of ice-cold methanol and 5-LOX products were analyzed by RP-HPLC as previously described[58]. Briefly, 530 µl acidified PBS and 200 ng of internal PGB1 standard were added and solid phase extraction using C18 RP-columns (100 mg, UCT, Bristol, PA, USA) was performed. After elution with methanol, samples were analyzed by RP-HPLC using a C-18 Radial-PAK column (Waters, Eschborn, Germany). Unless stated otherwise, 5-LOX products include all-trans-isomers of LTB4 and 5-HpETE as well as its corresponding alcohol 5-HETE.
# 5-LOX/FLAP complex = target: T2, 5-LOX/FLAP complex (Homo sapiens, UniProt P20292); assay: Proximity ligation assay of 5-LOX/FLAP complex assembly in monocytes; type: cell-based; settings: diflapolin 1 µM, MK886 0.3 µM, zileuton 3 µM
# T2 construct: endogenous in cells; host or cells: freshly isolated human monocytes (immunofluorescence also in neutrophils)
# T2 sequence (P20292 1-161): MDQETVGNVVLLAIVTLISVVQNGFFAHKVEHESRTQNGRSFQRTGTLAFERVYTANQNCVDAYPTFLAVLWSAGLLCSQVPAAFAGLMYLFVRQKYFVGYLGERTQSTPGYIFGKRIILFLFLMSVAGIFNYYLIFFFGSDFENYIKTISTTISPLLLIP
# Description: In situ protein interaction of 5-LOX and FLAP was analyzed by proximity ligation assay as described before[37] and referring to the manufacturer’s protocol. In brief, freshly isolated monocytes were treated as described for IF above. Overnight incubations with primary antibodies were then treated for 1 h (37 °C) with oligonucleotide-labeled specific secondary antibodies (PLA probes anti-mouse MINUS and anti-rabbit PLUS). Formation of circled DNA sequences was induced by addition of ligase and oligonucleotide mixture (30 min at 37 °C). Rolling-circle-amplification of newly generated DNA template was performed (90 min, 37 °C) including hybridization of fluorescently-labeled oligonucleotides within the formed DNA strands, resulting in visualization of protein-protein interactions recognized as magenta-stained dots. Nuclear DNA staining with DAPI and image acquisition was performed as described above. Overview images were obtained using a Plan Neofluar 40/1.30 Oil (DIC III) objective (Carl Zeiss).
# purified ovine COX-1 = target: T3, purified ovine COX-1 (Ovis aries, UniProt P05979); assay: COX-1 activity, cell-free (12-HHT formation); type: biochemical; settings: 10 µM
# T3 construct: purchased Cayman Chemical (Biomol, Hamburg, Germany)
# T3 sequence (P05979 25-600): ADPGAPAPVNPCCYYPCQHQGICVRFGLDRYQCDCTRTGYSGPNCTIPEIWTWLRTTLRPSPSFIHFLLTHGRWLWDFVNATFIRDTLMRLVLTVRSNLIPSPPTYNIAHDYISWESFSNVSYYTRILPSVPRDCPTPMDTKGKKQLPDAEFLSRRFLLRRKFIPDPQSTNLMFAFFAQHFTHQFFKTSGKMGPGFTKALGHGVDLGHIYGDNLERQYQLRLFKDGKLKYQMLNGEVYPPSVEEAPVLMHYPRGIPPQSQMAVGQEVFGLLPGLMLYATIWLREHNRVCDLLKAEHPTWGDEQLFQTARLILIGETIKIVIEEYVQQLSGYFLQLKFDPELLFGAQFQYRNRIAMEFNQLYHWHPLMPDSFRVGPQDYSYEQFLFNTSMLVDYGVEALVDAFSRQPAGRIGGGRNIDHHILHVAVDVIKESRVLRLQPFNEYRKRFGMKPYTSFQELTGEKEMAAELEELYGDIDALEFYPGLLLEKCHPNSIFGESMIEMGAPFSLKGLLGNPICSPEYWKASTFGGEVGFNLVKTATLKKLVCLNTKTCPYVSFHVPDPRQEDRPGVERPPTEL
# Description: COX activity was assayed by using purified ovine COX-1 and recombinant human COX-2, respectively. Enzymes were diluted in Tris buffer (100 mM, pH 8) supplemented with glutathione (5 mM), EDTA (100 µM) and hemoglobin (5 µM) to a final concentration of 50 U/mL (COX-1) or 20 U/mL (COX-2) and pre-incubated with test compounds or vehicle (0.1% DMSO) for 5 min at RT. After 30 sec at 37 °C, reactions were started with 5 µM AA (COX-1) or 2 µM AA (COX-2) and stopped after 5 min at 37 °C by addition of one volume of ice-cold methanol. Solid phase extraction was performed as described above after addition of 200 ng of internal PGB1 standard and COX product formation was determined by analysis of 12-HHT formation as reported before.
# 15-LOX = 15-LOX activity (15-HETE) in intact neutrophils; type: cell-based, human; settings: A23187 and 20 µM AA, concentration-dependently elevated
# Description: In order to examine 5-LOX product formation in intact human neutrophils and monocytes, freshly isolated cells were resuspended in PBS buffer containing 0.1% glucose and 1 mM CaCl2 (PGC buffer) to a final cell density of 5 × 10^6 or 2 × 10^6, respectively. […] 5-LOX product formation was stopped by addition of one volume of ice-cold methanol, samples were subjected to solid phase extraction after addition of 200 ng PGB1 as internal standard and 5-LOX products were analyzed by RP-HPLC as described above.
Compound,IC50 [1],IC50 (human recombinant 5-LOX),5-LOX/FLAP complex assembly (PLA) (5-LOX/FLAP complex),inhibition of COX-1 activity (purified ovine COX-1),15-HETE formation (15-LOX)
"CC(C)c1ccc2c(c1)c(SC(C)(C)C)c(CC(C)(C)C(=O)O)n2Cc1ccc(Cl)cc1 [MK886, 3-[1-(4-chlorobenzyl)-3-t-butyl-thio-5-isopropylindol-2-yl]-2,2 - dimethylpropanoic acid]",10 to 14 nM,> 10000 nM,comparable effects,–,–
"Cc1cc(OCc2nc3ccccc3s2)ccc1NC(=O)Nc1ccc(Cl)c(Cl)c1 [diflapolin, N-[4-(benzothiazol-2-ylmethoxy)-2-methylphenyl]-N′-(3,4-dichlorophenyl)urea]",–,–,–,did not significantly inhibit,up to 200 % of the vehicle control
